The record followed here is patent publication EP2276483B1, “SOLID FORMS COMPRISING (+)-2-[1-(3-ETHOXY-4-METHOXYPHENYL)-2-METHYLSULFONYLETHYL]-4-ACETYLAMINOISOINDOLINE-1,3-DIONE, COMPOSITIONS THEREOF, AND USES THEREOF” (CELGENE CORPORATION, priority 2008, dated 2009).

≈ marks a conversion by molar mass, not a printed value. Read-outs that look alike come from different tables or passages of the source. A value given as a limit tells only on which side of the number the result lay.

Data set [1] in a line: Compression Studies of solid forms. Conditions: 2000 psi force for at least one minute.
The nature of data set [2]: Stability Studies of solid forms. In kind it is physicochemical. The protocol: Stability Studies. The stabilities of Forms A, B, C and D were studied by exposing the solid samples to the stress condition of 40 °C / 75% RH for four weeks. Moreover, the stabilities of Forms A, B, C and D in different solvents were studied by equilibration in different solvents at 40 °C for four weeks. The slurries then were filtered and dried in the air. Solid samples obtained from the stability experiments were analyzed by XRPD and DSC.

Data set [3] can be described thus: Interconversion Studies of solid forms. The class given is physicochemical. Conditions: EQ in acetone:ethanol (1:1) at 25 °C; slurry agitated at least 2 days. The protocol: Interconversion Studies. Interconversion experiments were performed by making slurries of a solid form in a saturated solvent. The slurries were agitated for at least 2 days at about 25 °C. The saturated solution was removed by filtration and the solid was dried in the air.

Data set [4] in a line: Hygroscopicity studies (DVS moisture sorption/desorption). The class given is physicochemical. Conditions: for mass change of the starting mass of the sample (moisture sorption): RH increased from about 0% to about 95% RH; for solid-state transformation as a result of DVS analysis (XRPD): after full adsorption/desorption cycle, about 0% to about 95% RH, about 25 °C. As for the experimental part:
Hygroscopicity studies. The hygroscopicity of various solid forms was studied using a Surface Measurement Systems DVS instrument. Typically a sample size of between about 10-50 mg was loaded into the DVS instrument sample pan and the sample was analyzed on a DVS automated sorption analyzer at about 25 °C. The relative humidity was increased in increments of about 10% from about 0% to about 95% RH: The relative humidity was then decreased in a similar manner to accomplish a full adsorption/desorption cycle. The mass was recorded at periodic intervals throughout the experiment.
Hygroscopicity Studies. […] Table 6. Solubility Study on Form B

Data set [5] in a line: Solubility Studies in solvents. Conditions: 25 °C, thermodynamic from solid, about 25 °C, read-out: Approximate Solubility. In kind it is physicochemical. The protocol: Solubility Studies. A weighed sample of Compound A (about 100 mg) was treated with about 2 mL of the test solvent. The solvents used were either reagent or HPLC grade. The resulting mixture was agitated for at least 24 hours at about 25 °C. When all of the solids were dissolved by visual inspection, the estimated solubilities were calculated. The solubilities were estimated from these experiments based on the total volume of solvent used to give a solution. The actual solubilities may be greater than those calculated due to the use of large amount of solvent or to a slow rate of dissolution. […] A known volume of filtrate was evaporated to dryness and the weight of the residue was measured.
Solubility Studies. […] Form B was also found to have low solubility in several solvents including n-butanol, heptane, 2-propanol, toluene and water (less than about 1 mg/mL).

The mark [6] stands for this setting: EQ in ethanol at 40 °C for 4 weeks.
The mark [7] stands for this setting: EQ in heptane at 40 °C for 4 weeks.
The mark [8] stands for this setting: EQ in toluene at 40 °C for 4 weeks.
The mark [9] stands for this setting: EQ in water at 40 °C for 4 weeks.

For `CCOc1cc(C(CS(C)(=O)=O)N2C(=O)c3cccc(NC(C)=O)c3C2=O)ccc1OC` (single isomer, unassigned; (+)) [Form A, (+)-2-[1-(3-ethoxy-4-methoxyphenyl)-2-methylsulfonylethyl]-4-acetylaminoisoindoline-1,3-dione], the “physical stability upon compression by XRPD analysis” value (shortened to “physical stability upon compression”) in data set [1] was “substantially physically stable”. Further, the “Analysis by XRPD (resulting form)” value in data set [2] (40 °C / 75% RH, 4 weeks) is given as “Form A”; in data set [2] (setting [6]), “Form F”; in data set [2] (setting [7]), “Form A”; in data set [2] (setting [8]) it was “Form C”; in data set [2] (setting [9]), “Form A”; in data set [3] it was “Form B”. Moreover, the Appearance entry in data set [2] (40 °C / 75% RH, 4 weeks) is “White solid”. In data set [4], the “mass change of the starting mass of the sample (moisture sorption)” value (“mass change” for short) is given as “about 0.4%”. The “solid-state transformation as a result of DVS analysis (XRPD)” value (from here on “solid-state transformation as a result”) in data set [4] was “none of the forms analyzed underwent substantial solid-state transformation”.
What is called solubility is how much of the substance goes into solution per volume. `CCOc1cc(C(CS(C)(=O)=O)N2C(=O)c3cccc(NC(C)=O)c3C2=O)ccc1OC` (single isomer, unassigned; (+)) [Form B, (+)-2-[1-(3-ethoxy-4-methoxyphenyl)-2-methylsulfonylethyl]-4-acetylaminoisoindoline-1,3-dione]: in data set [1], the “physical stability upon compression” value is on record as “substantially physically stable”. Also, the solubility in data set [5] (2-propanol, organic solvent or mixture, 2-Propanol) was below 1000 µg/mL; in data set [5] (absolute ethanol, organic solvent or mixture, Absolute ethanol), 1380 µg/mL (≈ 3 mM); in data set [5] (acetone, organic solvent or mixture, Acetone), above 50000 µg/mL; in data set [5] (acetonitrile, organic solvent or mixture, Acetonitrile), above 50000 µg/mL; in data set [5] (ethanol:water (1:1), aqueous with cosolvent or surfactant or cyclodextrin, Ethanol: Water (1:1)), 2860 µg/mL (≈ 6.21 mM); in data set [5] (ethyl acetate, organic solvent or mixture, Ethyl acetate) it was around 30200 µg/mL (≈ 65.5 mM). The solubility in data set [5] (methanol, organic solvent or mixture, Methanol) is 4050 µg/mL (≈ 8.79 mM); in data set [5] (methyl ethyl ketone, organic solvent or mixture, Methyl ethyl ketone) it was above 50000 µg/mL; in data set [5] (methyl t-butyl ether, organic solvent or mixture, Methyl t-butyl ether), 1170 µg/mL (≈ 2.54 mM); in data set [5] (methylene chloride, organic solvent or mixture, Methylene chloride), above 50000 µg/mL; in data set [5] (n-butanol, organic solvent or mixture, n-Butanol), below 1000 µg/mL; in data set [5] (n-butyl acetate, organic solvent or mixture, n-Butyl acetate), 9750 µg/mL (≈ 21.2 mM). For the same compound, the solubility was above 50000 µg/mL in data set [5] (tetrahydrofuran, organic solvent or mixture, Tetrahydrofuran); below 1000 µg/mL in data set [5] (toluene, organic solvent or mixture, Toluene); below 1000 µg/mL in data set [5] (water, water, Water). Moreover, the “Analysis by XRPD (resulting form)” value is “Form B” in data set [2] (40 °C / 75% RH, 4 weeks); “Form B” in data set [2] (setting [6]); “Form B” in data set [2] (setting [7]); “Form B” in data set [2] (setting [8]); “Form B” in data set [2] (setting [9]). The Appearance entry in data set [2] (40 °C / 75% RH, 4 weeks) is recorded as “White solid”. The “mass change” value in data set [4] is recorded as “about 0.6%”. Besides, the “solid-state transformation as a result” value in data set [4] was “none of the forms analyzed underwent substantial solid-state transformation”.
On to `CCOc1cc(C(CS(C)(=O)=O)N2C(=O)c3cccc(NC(C)=O)c3C2=O)ccc1OC` (single isomer, unassigned; (+)) [Form C, (+)-2-[1-(3-ethoxy-4-methoxyphenyl)-2-methylsulfonylethyl]-4-acetylaminoisoindoline-1,3-dione], for which the “physical stability upon compression” value in data set [1] is “substantially physically stable”. For the same compound, the “Analysis by XRPD (resulting form)” value in data set [2] (40 °C / 75% RH, 4 weeks) is reported as “Form C”; in data set [2] (setting [6]), “Form C”; in data set [2] (setting [7]) it was “Form C”; in data set [2] (setting [8]), “Form C”; in data set [2] (setting [9]), “Form C”; in data set [3] it was “Form C”. The Appearance entry in data set [2] (40 °C / 75% RH, 4 weeks) is reported as “Yellow solid”. The “mass change” value in data set [4] is listed as “about 0.5%”. Moreover, in data set [4], the “solid-state transformation as a result” value is given as “none of the forms analyzed underwent substantial solid-state transformation”.
As for `CCOc1cc(C(CS(C)(=O)=O)N2C(=O)c3cccc(NC(C)=O)c3C2=O)ccc1OC` (single isomer, unassigned; (+)) [Form D, (+)-2-[1-(3-ethoxy-4-methoxyphenyl)-2-methylsulfonylethyl]-4-acetylaminoisoindoline-1,3-dione], the “physical stability upon compression” value in data set [1] is “substantially physically stable”. Further, the “Analysis by XRPD (resulting form)” value in data set [2] (40 °C / 75% RH, 4 weeks) is “Form D”; in data set [2] (setting [6]), “Form B”; in data set [2] (setting [7]), “Form B”; in data set [2] (setting [8]) it was “Form C”; in data set [2] (setting [9]), “Form B”; in data set [3] it was “Form B”. The Appearance entry in data set [2] (40 °C / 75% RH, 4 weeks) is reported as “White solid”. Also, the “mass change” value in data set [4] is listed as “about 1.5%”. For the same compound, the “solid-state transformation as a result” value in data set [4] is recorded as “none of the forms analyzed underwent substantial solid-state transformation”.
For the compound `CCOc1cc(C(CS(C)(=O)=O)N2C(=O)c3cccc(NC(C)=O)c3C2=O)ccc1OC` (single isomer, unassigned; (+)) [Form E, (+)-2-[1-(3-ethoxy-4-methoxyphenyl)-2-methylsulfonylethyl]-4-acetylaminoisoindoline-1,3-dione], in data set [3], the “Analysis by XRPD (resulting form)” value is reported as “Form B”. Also, in data set [4], the “mass change” value is “about 5.1%” and the “solid-state transformation as a result” value is on record as “none of the forms analyzed underwent substantial solid-state transformation”.
The corresponding values for `CCOc1cc(C(CS(C)(=O)=O)N2C(=O)c3cccc(NC(C)=O)c3C2=O)ccc1OC` (single isomer, unassigned; (+)) [Form F, (+)-2-[1-(3-ethoxy-4-methoxyphenyl)-2-methylsulfonylethyl]-4-acetylaminoisoindoline-1,3-dione] are “Form F”, “about 0.2%” and “none of the forms analyzed underwent substantial solid-state transformation”.
The corresponding values for `CCOc1cc(C(CS(C)(=O)=O)N2C(=O)c3cccc(NC(C)=O)c3C2=O)ccc1OC` (single isomer, unassigned; (+)) [Form G, (+)-2-[1-(3-ethoxy-4-methoxyphenyl)-2-methylsulfonylethyl]-4-acetylaminoisoindoline-1,3-dione] are “Form B”, “about 0.4%” and “none of the forms analyzed underwent substantial solid-state transformation”.
